{"source": "paper PMC2424174", "about": "“Suppression of Tumor Growth and Angiogenesis by a Specific Antagonist of the Cell-Surface Expressed Nucleolin” (PLoS ONE, 2008)", "key": {"[1]": {"system": "MDA-MB-231 tumor-cell xenografts", "assay": "MDA-MB-231 xenograft in nude mice", "type": "in vivo, human", "method": "Figure 8 HB-19 inhibits tumor growth in the nude mice. (A) HB-19 inhibits the growth of MDA-MB-231 tumor-cell xenografts. Cells (2×10^6) were injected subcutaneously into the right flank of female nude mice. Two weeks later, mice with a palpable tumor of approximately 40 mm^3 in volume were randomly separated into three groups (n = 5) and were given peritumoral injections 3 times/week of 0.1 ml PBS alone (Control), HB-19 (5 mg/kg), or Tamoxifen (Tmx) 10 mg/kg) for 6 weeks. (B) HB-19 inhibits the growth of MDA-MB-435 tumor-cell xenografts. Cells (1×10^6) were injected in the mammary fat pad of female nude mice. Two weeks later, mice with a palpable tumor were randomly separated into three groups (n = 10) and were given intraperitoneal injections 3 times/week of 0.1 ml PBS alone (Control), HB-19 (5 mg/kg), or 5-fluouracil (5-FU, 40 mg/kg) for 8 weeks. At the end of each experiment (in A and B), mice were sacrificed and the tumors were excised and weighed. The results are presented as the mean weight ±standard deviation (±S.D.) obtained from the number of mice in each group. (C, D) Inhibition of tumor development in mice treated by intraperitoneal (i.p.) and subcutaneous (s.c.) administration of HB-19. MDA-MB-231 tumor bearing mice in three groups (n = 10) were treated with HB-19 (10 mg/kg) by i.p. or s.c. injections, 3 times/week for 28 days. […] Statistical significance: *p<0.05, **p<0.01, ***p<0.001."}, "[2]": {"system": "HUVECs", "assay": "HUVEC migration assay (modified Boyden chamber)", "type": "cell-based, human", "settings": "VEGF165; 1 µM HB-19 or 0.1 µM mAb MS-3; 4 h, 37°C; two independent experiments", "method": "Figure 6 Inhibition of in vitro and in vivo angiogenesis by HB-19. (A) HB-19 inhibits proliferation of HUVECs. Twenty-four hours after seeding HUVECs in 2% FBS, cells were stimulated by 0.25 nM VEGF165, in the absence or presence of 1 µM HB-19 or 0.1 µM anti-nucleolin mAb MS-3 as indicated. After 72 h, cell number was determined by crystal violet staining. The data are reported as the mean of triplicate samples. (B) HB-19 inhibits migration of HUVECs. Cell migration was studied using a modified Boyden chamber. Cells were incubated (4 h at 37°C) with VEGF165, HB-19, or anti-nucleolin mAb MS-3 as above. Cells that migrated through the pore to the lower filter surface were counted and are shown as number per microscopic field at ×100 magnification. […] Tubular network structures were quantified using phase contrast microscopy (×100). […] Quantification of endothelial cell invasion into the Matrigel was determined and is expressed as a mean of five fields per section from 3 Matrigel-plug sections per mouse. The results are expressed as the mean of five mice per group. […]\nHUVEC migration assays were performed using a 24-well chemotaxis chamber (Transwell, Corning Costar, France). […] The cells that had migrated through the pores to the lower filter surface were counted in three random high power fields in each well (magnification 100×). […]"}, "[3]": {"system": "HUVECs", "assay": "HB-19 entry in HUVECs, confocal microscopy", "type": "cell-based, human", "settings": "5 µM HB-19/Btn, 1 hour, 37°C", "method": "Figure 3 Specific binding and entry of HB-19 in endothelial cells. (A) HB-19/Btn forms a stable complex with nucleolin expressed on the surface of HUVECs. Cells were incubated (45 min, 20°C) with 0, 1, 2, 4, 8 and 12 µM of HB-19/Btn before preparation of surface/cytoplasmic and nuclear extracts and recovery of surface nucleolin from the surface/cytoplasmic extracts as in Figure 2A. Material extracted from 2×10^7 and 2×10^6 cells was analyzed in panels Surface and Surface/Cytoplasm or Nucleus, respectively. Immunoblotting was with the anti-nucleolin mAb D3. (B) The specific binding of HB-19/Btn to HUVECs. The binding of 1 µM HB-19/Btn was studied at 4 °C by FACScan analysis. To show the specificity of binding, the reaction was carried out in the absence or presence of 50 µM HB-19, F3, or 9Arg peptides. The ordinate gives the relative cell number, whereas the abscissa gives the relative fluorescence intensity. (C) HB-19 entry in HUVECs. Cells were incubated with 5 µM of HB-19/Btn (1 hour, 37°C) before fixation in PFA (for surface binding) or PFA-Triton (for entry), respectively. Cells were then successively incubated with rabbit anti-biotin antibodies and goat Texas Red-conjugated anti-rabbit IgG, and processed for confocal microscopy. The scans of cells toward the middle cell layer are presented (with the DAPI stained nuclei). […]"}, "[4]": {"settings": "HB-19 10 mg/kg, intraperitoneal, 3 times/week, 28 days, n = 10"}}, "data": [{"substance": "pseudo-tripeptide Lysψ(CH2N)-Pro-Arg coupled to a template (H2NLys-Lys-Lys-Gly-Pro-Lys-Glu-Lys-AhxCONH2) [HB-19, pseudopeptide presenting pentavalently the pseudo-tripeptide Lysψ(CH2N)-Pro-Arg coupled to a template]", "values": [{"measurement": "antitumoral activity compared with tamoxifen", "setting": "[1]; HB-19 5 mg/kg vs tamoxifen 10 mg/kg, peritumoral", "value": "superior to the conventional cancer drug tamoxifen"}, {"measurement": "tumor elimination", "setting": "[1]; HB-19 5 mg/kg, peritumoral, 3 times/week, 6 weeks", "value": "in some cases eliminated measurable tumors"}, {"measurement": "inhibition of tumor growth", "setting": "[1]; HB-19 5 mg/kg, peritumoral, 3 times/week, 6 weeks, n = 5", "value": "> 95", "unit": "%"}, {"measurement": "complete eradication of the tumor", "setting": "[1]; [4]", "value": "Complete eradication of the tumor was observed in several mice"}, {"measurement": "inhibition in tumor volume", "setting": "[1]; [4]", "value": "more than 95%"}, {"measurement": "inhibition in tumor volume", "setting": "[1]; HB-19 10 mg/kg, subcutaneous, 3 times/week, 28 days, n = 10", "value": "more than 95%"}, {"measurement": "inhibition of HUVEC migration", "setting": "[2]", "value": "inhibited dramatically both of these events down to levels comparable to that of unstimulated cells"}, {"measurement": "internalization and subcellular localization", "setting": "[3]", "value": "internalized and is concentrated in the cytoplasm without translocation into the nucleus"}]}]}
